Test results reported in patent US5451564A, “Antimicrobial composition comprising N-hydroxy heterocyclic thiones” (priority 1991, dated 1995).
Read-outs that look alike come from different tables or passages of the source.

Assays:
[1] = aqueous solubility of zinc complex after milling in pyrophosphate solution and dilution with distilled water until clear; format: physicochemical
Procedure: The concentration of the 2:1 zinc complex was then determined.
The zinc complex was milled in a 0.1 molar solution of tetrasodium pyrophosphate as described in Example 1. This was then diluted with distilled water until a clear solution was obtained.
These solutions were prepared by the method described in Example 1.

[2] = tested on: mixed suspension of Pseudomonas aeruginosa, Proteus rettgeri, Serratia marcescans, Aeromonas hydrophila, Alcaligenes species, Pseudomonas cepacia and …; experiment: repeated bacterial challenge test in acrylic (emulsion) paint; format: cell-based, mixed bacteria; parameters: key: 5: Confluent growth; 4: Heavy growth; 3: Moderate growth; 2: Slight growth; 1: Trace growth; 0: No growth
Procedure: (§1) An inoculum was prepared containing Pseudomonas aeruginosa, Proteus rettgeri, Serratia marcescans, Aeromonas hydrophila, Alcaligenes species, Pseudomonas cepacia and Pseudomonas putida by culturing the individual organisms onto nutrient agar and incubating for 24 hours at 30° C. Each of the individual suspensions of the test organisms were then prepared at a concentration of 10E8 cfu/ml in one quarter strength Ringer's solution by means of a Thoma counting chamber. A mixed suspension was obtained by mixing equal volumes of the individual suspensions. This procedure was repeated for each of the three challenges to which the test substrates were subjected, and the concentration of micro-organisms in each substrate after challenge was 2×10E6 cfu/ml.
(§2) Aliquots (50 parts) of a standard laboratory acrylic latex and an emulsion paint were prepared containing 0, 10, 25, 50, 100, 125, 250, 500 and 750 ppm of the 1:2 zinc complex of 3-hydroxy-4-methylthiazol-2(3H)thione which was prepared as a 1% dispersion in an aqueous solution of 0.1M tetrasodium pyrophosphate. A 1% dispersion of the 1:2 zinc complex of 1-hydroxy-2-pyridinethiol in an aqueous solution of 0.1M tetrasodiumpyrophosphate was evaluated in the same manner.
(§3) The test substrates were then stored at 40° C. for seven days and were then challenged on three separate occasions with 1 part by volume of the mixed suspension of micro-organisms. All the substrates were then incubated at 30° C. and examined for the presence of viable bacteria after 1, 3 and 7 days after each challenge (Phase 1).
(§4) Those samples which had achieved sterility were then stored for a further 8 weeks at 30° C., and were then rechallenged and the number of viable organisms again determined (Phase 2).
(§5) Viable bacteria were detected by streaking small aliquots onto nutrient agar followed by incubation at 30° C. for 2 days. The presence or absence of colonies was determined visually. […]

[3] = tested on: mixed suspension of Pseudomonas aeruginosa, Proteus rettgeri, Serratia marcescans, Aeromonas hydrophila, Alcaligenes species, Pseudomonas cepacia and …; format: cell-based, mixed bacteria; parameters: key: 5: Confluent growth; 4: Heavy growth; 3: Moderate growth; 2: Slight growth; 1: Trace growth; 0: No growth
Procedure: as §1, §2, §3, §4, §5

Compound: Cc1csc(=S)n1[O-].Cc1csc(=S)n1[O-].[Zn+2] [Compound A, 1:2 zinc complex of 3-hydroxy-4-methylthiazol-2(3H)thione]
- aqueous solubility ([1]; finely milled sample, no pyrophosphate): about 5 ppm
- solubility in the presence of the pyrophosphate anion ([1]; milled in 0.1 molar tetrasodium pyrophosphate, diluted with distilled water): about 10,000 ppm
- growth rating ([2]; paint 10 ppm, Phase 1 Chall 1, day 1): 5
- growth rating ([2]; paint 10 ppm, Phase 1 Chall 1, day 3): 5
- growth rating ([2]; paint 10 ppm, Phase 1 Chall 1, day 7): 0
- growth rating ([2]; paint 10 ppm, Phase 1 Chall 2, day 1): 5
- growth rating ([2]; paint 10 ppm, Phase 1 Chall 2, day 3): 5
- growth rating ([2]; paint 10 ppm, Phase 1 Chall 2, day 7): 5
- growth rating ([2]; paint 10 ppm, Phase 1 Chall 3, day 1): 5
- growth rating ([2]; paint 10 ppm, Phase 1 Chall 3, day 3): 5
- growth rating ([2]; paint 10 ppm, Phase 1 Chall 3, day 7): 5
- growth rating ([2]; paint 25 ppm, Phase 1 Chall 1, day 1): 5
- growth rating ([2]; paint 25 ppm, Phase 1 Chall 1, day 3): 3
- growth rating ([2]; paint 25 ppm, Phase 1 Chall 1, day 7): 0
- growth rating ([2]; paint 25 ppm, Phase 1 Chall 2, day 1): 5
- growth rating ([2]; paint 25 ppm, Phase 1 Chall 2, day 3): 4
- growth rating ([2]; paint 25 ppm, Phase 1 Chall 2, day 7): 0
- growth rating ([2]; paint 25 ppm, Phase 1 Chall 3, day 1): 5
- growth rating ([2]; paint 25 ppm, Phase 1 Chall 3, day 3): 5
- growth rating ([2]; paint 25 ppm, Phase 1 Chall 3, day 7): 4
- growth rating ([2]; paint 50 ppm, Phase 1 Chall 1, day 1): 5
- growth rating ([2]; paint 50 ppm, Phase 1 Chall 1, day 3): 3
- growth rating ([2]; paint 50 ppm, Phase 1 Chall 1, day 7): 0
- growth rating ([2]; paint 50 ppm, Phase 1 Chall 2, day 1): 5
- growth rating ([2]; paint 50 ppm, Phase 1 Chall 2, day 3): 4
- growth rating ([2]; paint 50 ppm, Phase 1 Chall 2, day 7): 0
- growth rating ([2]; paint 50 ppm, Phase 1 Chall 3, day 1): 5
- growth rating ([2]; paint 50 ppm, Phase 1 Chall 3, day 3): 4
- growth rating ([2]; paint 50 ppm, Phase 1 Chall 3, day 7): 0
- growth rating ([2]; paint 100 ppm, Phase 1 Chall 1, day 1): 5
- growth rating ([3]; latex 10 ppm, Phase 1 Chall 1, day 1): 5
- growth rating ([3]; latex 10 ppm, Phase 1 Chall 1, day 3): 5
- growth rating ([3]; latex 10 ppm, Phase 1 Chall 1, day 7): 4
- growth rating ([3]; latex 10 ppm, Phase 1 Chall 2, day 1): 5
- growth rating ([3]; latex 10 ppm, Phase 1 Chall 2, day 3): 5
- growth rating ([3]; latex 10 ppm, Phase 1 Chall 2, day 7): 5
- growth rating ([3]; latex 10 ppm, Phase 1 Chall 3, day 1): 5
- growth rating ([3]; latex 10 ppm, Phase 1 Chall 3, day 3): 5
- growth rating ([3]; latex 10 ppm, Phase 1 Chall 3, day 7): 5
- growth rating ([3]; latex 25 ppm, Phase 1 Chall 1, day 1): 5
- growth rating ([3]; latex 25 ppm, Phase 1 Chall 1, day 3): 5
- growth rating ([3]; latex 25 ppm, Phase 1 Chall 1, day 7): 4
- growth rating ([3]; latex 25 ppm, Phase 1 Chall 2, day 1): 5
- growth rating ([3]; latex 25 ppm, Phase 1 Chall 2, day 3): 5
- growth rating ([3]; latex 25 ppm, Phase 1 Chall 2, day 7): 3
- growth rating ([3]; latex 25 ppm, Phase 1 Chall 3, day 1): 5
- growth rating ([3]; latex 25 ppm, Phase 1 Chall 3, day 3): 5
- growth rating ([3]; latex 25 ppm, Phase 1 Chall 3, day 7): 5
- growth rating ([3]; latex 50 ppm, Phase 1 Chall 1, day 1): 5
- growth rating ([3]; latex 50 ppm, Phase 1 Chall 1, day 3): 2
- growth rating ([3]; latex 50 ppm, Phase 1 Chall 1, day 7): 2
- growth rating ([3]; latex 50 ppm, Phase 1 Chall 2, day 1): 5
- growth rating ([3]; latex 50 ppm, Phase 1 Chall 2, day 3): 4
- growth rating ([3]; latex 50 ppm, Phase 1 Chall 2, day 7): 0
- growth rating ([3]; latex 50 ppm, Phase 1 Chall 3, day 1): 5
- growth rating ([3]; latex 50 ppm, Phase 1 Chall 3, day 3): 4
- growth rating ([3]; latex 50 ppm, Phase 1 Chall 3, day 7): 0
- growth rating ([3]; latex 100 ppm, Phase 1 Chall 1, day 1): 5
- growth rating ([3]; latex 100 ppm, Phase 1 Chall 1, day 3): 3
- growth rating ([3]; latex 100 ppm, Phase 1 Chall 1, day 7): 0
- growth rating ([3]; latex 100 ppm, Phase 1 Chall 2, day 1): 4
- growth rating ([3]; latex 100 ppm, Phase 1 Chall 2, day 3): 4
- growth rating ([3]; latex 100 ppm, Phase 1 Chall 2, day 7): 0
- growth rating ([3]; latex 100 ppm, Phase 1 Chall 3, day 1): 4
- growth rating ([3]; latex 100 ppm, Phase 1 Chall 3, day 3): 4
- growth rating ([3]; latex 100 ppm, Phase 1 Chall 3, day 7): 0
- growth rating ([3]; latex 125 ppm, Phase 1 Chall 1, day 1): 5
- growth rating ([3]; latex 125 ppm, Phase 1 Chall 1, day 3): 3
- growth rating ([3]; latex 125 ppm, Phase 1 Chall 1, day 7): 0
- growth rating ([3]; latex 125 ppm, Phase 1 Chall 2, day 1): 4
- growth rating ([3]; latex 125 ppm, Phase 1 Chall 2, day 3): 4
- growth rating ([3]; latex 125 ppm, Phase 1 Chall 2, day 7): 0
- growth rating ([3]; latex 125 ppm, Phase 1 Chall 3, day 1): 4
- growth rating ([3]; latex 125 ppm, Phase 1 Chall 3, day 3): 4
- growth rating ([3]; latex 125 ppm, Phase 1 Chall 3, day 7): 0
- growth rating ([3]; latex 250 ppm, Phase 1 Chall 1, day 1): 5
- growth rating ([3]; latex 250 ppm, Phase 1 Chall 1, day 3): 3
- growth rating ([3]; latex 250 ppm, Phase 1 Chall 1, day 7): 0
- growth rating ([3]; latex 250 ppm, Phase 1 Chall 2, day 1): 4
- growth rating ([3]; latex 250 ppm, Phase 1 Chall 2, day 3): 4
- growth rating ([3]; latex 250 ppm, Phase 1 Chall 2, day 7): 0
- growth rating ([3]; latex 250 ppm, Phase 1 Chall 3, day 1): 4
- growth rating ([3]; latex 250 ppm, Phase 1 Chall 3, day 3): 4
- growth rating ([3]; latex 250 ppm, Phase 1 Chall 3, day 7): 0
- growth rating ([3]; latex 500 ppm, Phase 1 Chall 1, day 1): 5
- growth rating ([3]; latex 500 ppm, Phase 1 Chall 1, day 3): 3
- growth rating ([3]; latex 500 ppm, Phase 1 Chall 1, day 7): 0
- growth rating ([3]; latex 500 ppm, Phase 1 Chall 2, day 1): 4
- growth rating ([3]; latex 500 ppm, Phase 1 Chall 2, day 3): 4
- growth rating ([3]; latex 500 ppm, Phase 1 Chall 2, day 7): 0
- growth rating ([3]; latex 500 ppm, Phase 1 Chall 3, day 1): 3
- growth rating ([3]; latex 500 ppm, Phase 1 Chall 3, day 3): 2
- growth rating ([3]; latex 500 ppm, Phase 1 Chall 3, day 7): 0
- growth rating ([3]; latex 750 ppm, Phase 1 Chall 1, day 1): 4
- growth rating ([3]; latex 750 ppm, Phase 1 Chall 1, day 3): 2
- growth rating ([3]; latex 750 ppm, Phase 1 Chall 1, day 7): 0
- growth rating ([3]; latex 750 ppm, Phase 1 Chall 2, day 1): 3
- growth rating ([3]; latex 750 ppm, Phase 1 Chall 2, day 3): 3
- growth rating ([3]; latex 750 ppm, Phase 1 Chall 2, day 7): 0
- growth rating ([3]; latex 750 ppm, Phase 1 Chall 3, day 1): 2
- growth rating ([3]; latex 750 ppm, Phase 1 Chall 3, day 3): 0
- growth rating ([3]; latex 750 ppm, Phase 1 Chall 3, day 7): 0
